# Assay results as given in patent US20230010871A1, “COMPLEXES COMPRISING A CA[…] AND AN ACTIVE INGREDIENT AND PROCESSES FOR THEIR PREPARATION” (FOLIUM LABS INC., priority 2019, published 2023).
# Assay: Oral pharmacokinetic profile of CBD and THC complexes in rats (plasma concentration by GC-MS/MS)
# Conditions: per os single gavage, fasted male rats
Compound,"CBD Cmax (average) (20 mg/kg CBD-based dose, plasma)",THC average circulating levels in plasma (20 mg/kg THC-based dose)
"C=C(C)[C@@H]1CCC(C)=C[C@H]1c1c(O)cc(CCCCC)cc1O [CBD, cannabidiol]",12.7 ng/mL,
"CCCCCc1cc(O)c2c(c1)OC(C)(C)[C@@H]1CCC(C)=C[C@@H]21 [pure THC, tetrahydrocannabinol]",,mostly below the limit of quantitation
